Each structure is given as a SMILES string.

The record followed here is patent publication US12678421B2, “Composition for enhancing NAMPT gene expression” (DAICEL CORPORATION, priority 2020, dated 2026).

The test system of experiment [1] is SIRT1 gene. Put plainly: SIRT1 gene expression in Caco-2 cells (real-time PCR). The experiment is classed as cell-based, human. The note with it: 10 μM, 24 hours after addition, relative to β-actin, vs DMSO control (FIG. 2). Here is the method:
(§1) Human colon cancer-derived cell line Caco-2 cells (colon, epithelial-like, colorectal adenocarcinoma, human, ATCC HTB-37) were passaged using DMEM (containing 10% FBS, antibiotics (penicillin and streptomycin), and NaHCO3) medium in a CO2 incubator under conditions of 37° C., 5% CO2, and 95% air, and used for testing.
(§2) Caco-2 cells were seeded in a 12-well plate at a cell concentration of 3×10^5 cells/dish, and equol dissolved in DMSO was added at a final concentration of 10 μM after 24 hours and 48 hours. In addition, the same amount of DMSO was added to a control, and resveratrol (Wako Pure Chemical Industries, Ltd.) was added to a positive control at a final concentration of 10 μM.
(§3) Cells were harvested 24 hours after the addition of equol, and total RNA was extracted. cDNA was synthesized using the total RNA and was used as a template for real-time PCR. Real-time PCR was performed using a primer of each gene and the prepared cDNA to measure the expression level of each gene. In addition, the relative gene expression level was calculated using β-actin, which is a housekeeping gene, by dividing the measured value by the expression level of β-actin. The orientation of the primer sequences is 5′ to 3′ from left to right.

Experiment [2] relates to NAMPT gene. The experiment can be described thus: NAMPT gene expression in Caco-2 cells (real-time PCR). The class given is cell-based, human. The note with it: 10 μM, 24 hours after addition, relative to β-actin, vs DMSO control (FIG. 1). The protocol:
as §1, §2, §3
A general note: Quantitative PCR measures a nucleic acid by following its amplification.

Experiment [3] has as its system Caco-2 cells. Put plainly: Intracellular NAD^+/NADH quantification in Caco-2 cells. The experiment is classed as cell-based, human. The following applies: 10 μM, 24 hours after addition, vs DMSO control (FIG. 4). The protocol:
(§4) Caco-2 cells were passaged in the same manner as in Example 1 and used for testing. Caco-2 cells were seeded in a 5-mL dish at a cell concentration of 3×10^5 cells/dish, and equol was added in the same manner as in Example 1. In addition, a control and a positive control were prepared in the same manner as well.
The medium was removed 24 hours after the addition of equol, the cells were washed with PBS, then intracellular NAD^+ and NADH were measured using an NAD^+/NADH quantification kit (BioVision, San Francisco, USA), and the NAD^+/NADH ratio was determined.

Experiment [4] concerns SIRT1 gene. The experiment can be described thus: SIRT1 gene expression in C2C12 cells (real-time PCR). The class given is cell-based, mouse. The note with it: C2C12 cells (myotubes), 10 μM, 24 hours after addition, relative to β-actin, vs DMSO control (FIG. 8). The protocol: (§5) Mouse skeletal muscle-derived myoblast cell line C2C12 cells (Muscle, Myoblast, Mus musculus, mouse, ATCC CRL-1772 (strain C3H)) were passaged using DMEM (containing 10% FBS, antibiotics (penicillin and streptomycin), and NaHCO3) medium in a CO2 incubator under conditions of 37° C., 5% CO2, and 95% air.
(§6) After the C2C12 cells reached about 90% confluence, the serum in the medium was replaced with inactivated horse serum, and the serum concentration was lowered to 2% to induce differentiation. Cells on day 5 after differentiation induction were used as C2C12 myotubes for testing.
(§7) C2C12 cells were seeded in a 12-well plate at a cell concentration of 3×10^5 cells/dish, and equol dissolved in DMSO was added at a final concentration of 10 μM after 24 hours and 48 hours. In addition, the same amount of DMSO was added to a control, and resveratrol was added to a positive control at a final concentration of 10 μM.
(§8) Cells were harvested 24 hours after the addition of equol, and total RNA was extracted. cDNA was synthesized using the total RNA and was used as a template for real-time PCR. […] In addition, the relative gene expression level was calculated using β-actin, which is a housekeeping gene, by dividing the measured value by the expression level of β-actin.

Experiment [5] relates to PGC-1α gene. Put plainly: PGC-1α gene expression in Caco-2 cells (real-time PCR). The class given is cell-based, human. The following applies: 10 μM, 24 hours after addition, relative to β-actin, vs DMSO control (FIG. 3). The protocol: as §1, §2, §3
For experiment [6], the system named is NAMPT gene. Put plainly: NAMPT gene expression in C2C12 cells (real-time PCR). The experiment is classed as cell-based, mouse. The note with it: C2C12 cells (myotubes), 10 μM, 24 hours after addition, relative to β-actin, vs DMSO control (FIG. 7). Here is the method: as §5, §6, §7, §8
The subject of experiment [7] is PGC-1α gene. The experiment can be described thus: PGC-1α gene expression in C2C12 cells (real-time PCR). The class given is cell-based, mouse. The note with it: C2C12 cells (myotubes), 10 μM, 24 hours after addition, relative to β-actin, vs DMSO control (FIG. 9). The protocol:
as §5, §6, §7, §8

The test system of a further experiment is C2C12 cells. The experiment can be described thus: Intracellular mitochondria in C2C12 myotubes (MitoTracker staining, imaging cytometer). The experiment is classed as cell-based, mouse. The following applies: 10 μM, 72 hours after addition, vs DMSO control (FIG. 10). The protocol:
(§9) Mitochondria were stained using MotoTracker Red CMXRos (Invitrogen Corporation) 24 hours after the addition of equol. The cells were subjected to NI Cell Analyzer 1000 Imaging Cytometer (GE Healthcare Bio-Sciences Corp, Piscataway, NJ, USA) to detect intracellular mitochondria, and the image data were digitized using “mito Tracker” of NI Cell Analyzer 1000 Workstation (GE Healthcare Bio-Sciences Corp, Piscataway, NJ, USA).
C2C12 cells were passaged in the same manner as in Example 7 and used for testing. C2C12 cells were seeded in a μClear Fluorescence Black Plate (Greiner Bio-one) at a cell concentration of 1×10^4 cells/well. After the cells reached about 90% confluence, the serum in the medium was replaced with inactivated horse serum, and the serum concentration was lowered to 2% to induce differentiation. Cells on day 5 after differentiation induction were used as C2C12 myotubes for testing.
Equol was added in the same manner as in Example 1. In addition, the same amount of DMSO was also used for a control.
The number of mitochondria was measured 72 hours after the addition of equol in the same manner as in Example 4.

Another experiment concerns PGC-1α. The experiment can be described thus: PGC-1α expression level and acetyl PGC-1α level in Caco-2 cells (Western blotting, immunoprecipitation). The experiment is classed as cell-based, human. The note with it: 10 μM, 24 hours after addition, vs DMSO control (FIGS. 5-1, 5-2). Here is the method: as §4
The medium was removed 24 hours after the addition of equol, the cells were washed with PBS, and then cellular proteins were extracted. The extracted proteins were subjected to Western blotting using an anti-PGC-1α antibody (ab77210, abcam, Cambridge, UK) to measure the expression level of PGC-1α. Furthermore, after immunoprecipitation using an anti-acetylated-lysine antibody (#9441S, Cell Signaling Technology, Danvers, MA, USA), the acetyl PGC-1α level was measured by Western blotting.

Experiment [8] deals with Caco-2 cells. The experiment can be described thus: Intracellular mitochondria in Caco-2 cells (MitoTracker staining, imaging cytometer). The class given is cell-based, human. The note with it: 10 μM, 24 hours after addition, vs DMSO control (FIG. 6). The protocol: Caco-2 cells were passaged in the same manner as in Example 1 and used for testing. Caco-2 cells were seeded in a μClear Fluorescence Black Plate (Greiner Bio-one) at a cell concentration of 5×10^3 cells/dish, and equol was added in the same manner as in Example 1. In addition, a control and a positive control were prepared in the same manner as well.
as §9

Consider `Oc1ccc([C@H]2COc3cc(O)ccc3C2)cc1` [equol, 4′,7-isoflavandiol], for which the “expression level of SIRT1 gene” value in the experiment with SIRT1 gene [1] and in the experiment with SIRT1 gene [4] was “increased the expression levels” in each case. Also, the “expression level of NAMPT gene” value in the experiment with NAMPT gene [2] and in the experiment on NAMPT gene [6] was “increased the expression levels” in each case. In addition, in the experiment on Caco-2 cells [3], the “NAD^+ (NAD^+/NADH ratio)” value is “increased NAD^+”. Moreover, the “expression level of PGC-1α gene” value in the experiment on PGC-1α gene [5] and with PGC-1α gene [7] was “increased the expression levels” each time. The “number of intracellular mitochondria” value in the experiment on C2C12 cells and with Caco-2 cells [8] was “increased the number of intracellular mitochondria” throughout. Also, the “deacetylation of PGC-1α (acetyl PGC-1α level)” value with PGC-1α is reported as “promote deacetylation of PGC-1α”. In addition, in the experiment on PGC-1α, the “expression level of PGC-1α (protein, Western blotting)” value is recorded as “increased the expression level of PGC-1α”.
